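Results reflect a 48-hour exposure of cells in 96-well plates to compound at five concentrations. The concentration for 50% growth inhibition is given as GI50. TGI marks complete inhibition of growth.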 Where only a bound is given, the exact number is not on record here.

Some test systems named below: A498 renal; CAKI-1 renal; CCRF-CEM leukemia; COLO 205 colon; DU-145 prostate; HOP-62 NSCLC; OVCAR-8 ovarian; RPMI-8226 leukemia; SR leukemia; RXF 393 renal.
Assay in all cases: NCI anticancer screen, dose series, 48 h

Turning to `CCOC(=O)C1c2[nH]c3ccccc3c2CCN1C(=O)c1ccco1` (stereo not drawn), the TGI with A498 renal, in the assay on CAKI-1 renal, with CCRF-CEM leukemia, in the assay on COLO 205 colon, in the assay on DU-145 prostate and in the assay with HOP-62 NSCLC was over 10 µM each time. The TGI with OVCAR-8 ovarian, in the assay with RPMI-8226 leukemia and in the assay on SR leukemia was over 10 µM throughout.

Consider `COc1ccc(Nc2c3c4c(cccc4[nH]c2=O)C(=O)c2ccccc2-3)cc1`, for which the GI50 is under 0.0192 µM with A498 renal; under 0.0218 µM with CAKI-1 renal; 0.0191 µM with COLO 205 colon; under 0.0181 µM in the assay with DU-145 prostate; 0.0457 µM in the assay on HOP-62 NSCLC; 0.0367 µM in the assay with OVCAR-8 ovarian. For the same compound, in the assay on RXF 393 renal, the GI50 was 0.0472 µM. Moreover, the TGI is 1.23 µM with CAKI-1 renal; 0.0446 µM in the assay on COLO 205 colon; 0.0467 µM with DU-145 prostate; over 100 µM in the assay with HOP-62 NSCLC; over 100 µM in the assay on OVCAR-8 ovarian; over 100 µM in the assay on RXF 393 renal.

As to `COc1ccc(-c2cc(-c3ccc(O)cc3)nc3nc(=S)[nH]c(N)c23)cc1`, the GI50 in the assay with A498 renal is 20.5 µM; in the assay with CAKI-1 renal, 27.1 µM; in the assay with COLO 205 colon it was 17 µM; in the assay with DU-145 prostate it was 12.1 µM; in the assay with HOP-62 NSCLC, 20.7 µM; with OVCAR-8 ovarian, 16.1 µM. The GI50 in the assay on RPMI-8226 leukemia was 10.6 µM; in the assay with RXF 393 renal, 28 µM; in the assay on SR leukemia it was 6.94 µM. Also, the TGI in the assay on A498 renal is 43.4 µM; with CAKI-1 renal it was 88.7 µM; in the assay with COLO 205 colon, 50.1 µM; in the assay with DU-145 prostate, 35.3 µM; in the assay with HOP-62 NSCLC, 47.5 µM; in the assay with OVCAR-8 ovarian it was 43.1 µM. Besides, the TGI was 25.7 µM in the assay on RPMI-8226 leukemia, 92.7 µM in the assay on RXF 393 renal and over 100 µM with SR leukemia.

For `C[As](C)Sc1ccnc(S[As](C)C)n1`, the GI50 in the assay on A498 renal was 26 µM; in the assay on CAKI-1 renal it was 4.35 µM; in the assay with CCRF-CEM leukemia, 1.34 µM; in the assay on COLO 205 colon, 1.53 µM; in the assay on DU-145 prostate it was 5.98 µM; in the assay with HOP-62 NSCLC, 19 µM. For the same compound, the figures for the GI50 in the assay on OVCAR-8 ovarian, with RPMI-8226 leukemia and in the assay with RXF 393 renal were 5.51 µM, 1.12 µM and 3.2 µM, respectively. For the same compound, the TGI in the assay with A498 renal was over 100 µM; in the assay with CAKI-1 renal it was 22.9 µM; in the assay on COLO 205 colon, over 39.3 µM; with DU-145 prostate, over 39.7 µM; with HOP-62 NSCLC it was over 46.3 µM; in the assay on OVCAR-8 ovarian, over 40.1 µM. In addition, the TGI with RPMI-8226 leukemia is 4.61 µM; in the assay on RXF 393 renal, 20.1 µM.

Consider `C#CC[C@@H]1C[C@]2(C)[C@H]3CC[C@@H]4[C@H]5[C@H](C(=C)C)CC[C@]5(C(=O)O)CC[C@@]4(C)[C@]3(C)CC[C@H]2C(C)(C)[C@H]1O`, for which the GI50 in the assay on A498 renal was 1.88 µM; with CCRF-CEM leukemia it was 2.36 µM; in the assay with COLO 205 colon it was 2.09 µM; in the assay with DU-145 prostate, 3.23 µM; in the assay on HOP-62 NSCLC it was 2.08 µM; with OVCAR-8 ovarian it was 2.17 µM. Also, the GI50 in the assay on RPMI-8226 leukemia was 1.68 µM; with RXF 393 renal, 1.7 µM; in the assay on SR leukemia it was 3.12 µM. The TGI in the assay with A498 renal turned out to be 4.19 µM; with CCRF-CEM leukemia, 9.02 µM; in the assay on COLO 205 colon, 4.68 µM; in the assay with DU-145 prostate, 10.8 µM; in the assay with HOP-62 NSCLC, 5.28 µM; with OVCAR-8 ovarian it was 4.81 µM. Further, the values for the TGI in the assay on RPMI-8226 leukemia, in the assay with RXF 393 renal and in the assay on SR leukemia were 14.7 µM, 3.52 µM and 11.9 µM, respectively.

In the case of `O=C(c1ccccc1)c1ccc(Cl)c([N+](=O)[O-])c1`, the GI50 was 16 µM in the assay on A498 renal; 5.5 µM with CAKI-1 renal; 3.18 µM in the assay on CCRF-CEM leukemia; 5.01 µM in the assay on COLO 205 colon; 3.69 µM in the assay with DU-145 prostate; 13.8 µM in the assay with HOP-62 NSCLC. Moreover, the GI50 with OVCAR-8 ovarian is 4.7 µM; with RPMI-8226 leukemia it was 3.64 µM; in the assay with SR leukemia, 3.04 µM. The TGI came out at 30.9 µM with A498 renal; 20.2 µM in the assay on CAKI-1 renal; 13.5 µM in the assay on CCRF-CEM leukemia; 19.9 µM with COLO 205 colon; 11.7 µM in the assay with DU-145 prostate; 28.8 µM with HOP-62 NSCLC. For the same compound, the values for the TGI in the assay with OVCAR-8 ovarian, in the assay on RPMI-8226 leukemia and with SR leukemia were 17.7 µM, 21.9 µM and 9.66 µM, respectively.

On to `O=C(c1ccccn1)c1nnn2ccccc12`, for which the TGI in the assay on A498 renal, with CAKI-1 renal, with CCRF-CEM leukemia, with COLO 205 colon, in the assay with DU-145 prostate and in the assay with HOP-62 NSCLC was over 100 µM each time. Further, the TGI in the assay with OVCAR-8 ovarian, with RPMI-8226 leukemia and with SR leukemia was over 100 µM throughout.

For `CC1(C)CC[C@]2(C(=O)n3ccnc3)CC[C@]3(C)[C@H](C(=O)C=C4[C@@]5(C)C=C(C#N)C(=O)C(C)(C)[C@@H]5CC[C@]43C)[C@@H]2C1`, the GI50 with A498 renal is 0.112 µM; in the assay with CAKI-1 renal, under 0.01 µM; in the assay on CCRF-CEM leukemia, under 0.01 µM; with COLO 205 colon, 0.0139 µM; in the assay with DU-145 prostate it was under 0.01 µM; with HOP-62 NSCLC, 0.0105 µM. Also, the GI50 is under 0.01 µM with OVCAR-8 ovarian, under 0.01 µM in the assay with RPMI-8226 leukemia and 0.0114 µM in the assay with RXF 393 renal. Moreover, the TGI in the assay on A498 renal is 0.28 µM; with CAKI-1 renal, 0.0393 µM; in the assay on CCRF-CEM leukemia, 0.0438 µM; in the assay with COLO 205 colon it was over 100 µM; in the assay with DU-145 prostate, 0.0174 µM; in the assay with HOP-62 NSCLC it was 0.0402 µM. For the same compound, the TGI was under 0.01 µM with RPMI-8226 leukemia and 0.0536 µM in the assay with RXF 393 renal.

As to `COC1OCC(OS(=O)(=O)c2ccc(C)cc2)C(OC(=O)c2ccccc2)C1OC(=O)c1ccccc1` (stereo not drawn), the GI50 in the assay with A498 renal is 4.53 µM; in the assay on CAKI-1 renal, 4.21 µM; in the assay with CCRF-CEM leukemia, 4.74 µM; in the assay on COLO 205 colon it was 4.14 µM; in the assay with DU-145 prostate, 19.7 µM; with HOP-62 NSCLC it was 3.18 µM. Besides, the values for the GI50 with OVCAR-8 ovarian, in the assay with RXF 393 renal and in the assay on SR leukemia were over 100 µM, 4.62 µM and 3.07 µM, respectively. Further, the TGI is 90.9 µM with A498 renal; over 100 µM with CAKI-1 renal; over 100 µM in the assay on CCRF-CEM leukemia; over 100 µM in the assay on COLO 205 colon; over 100 µM in the assay with DU-145 prostate; over 100 µM in the assay on HOP-62 NSCLC. Also, the TGI in the assay with OVCAR-8 ovarian, in the assay with RXF 393 renal and with SR leukemia was over 100 µM in each case.

As to `O=C1CSC(=S)N1c1ccc(F)cc1F`, the TGI with A498 renal was over 100 µM; in the assay with CAKI-1 renal, over 100 µM; in the assay on CCRF-CEM leukemia it was 76.4 µM; in the assay with COLO 205 colon, over 100 µM; in the assay on DU-145 prostate, over 100 µM; in the assay with HOP-62 NSCLC, over 100 µM. Also, the TGI with OVCAR-8 ovarian was over 100 µM; in the assay with RPMI-8226 leukemia, 66.4 µM; in the assay with RXF 393 renal, over 100 µM.

As for `Cc1cc(Cl)ccc1NC(=O)/C(Cl)=C(/Cl)C(=O)O`, the TGI in the assay on CAKI-1 renal is 37.6 µM; with CCRF-CEM leukemia, over 100 µM; in the assay with COLO 205 colon, 78 µM; in the assay with DU-145 prostate, 61.4 µM; in the assay with HOP-62 NSCLC it was 47.7 µM; in the assay with OVCAR-8 ovarian, 34.2 µM. Further, the TGI in the assay with RPMI-8226 leukemia worked out at 70.5 µM; in the assay with RXF 393 renal, 36.3 µM; with SR leukemia it was 36.4 µM.

On to `O=C(Nc1ccc(Cl)c(Cl)c1)C(=O)C(C1OC(=O)c2ccccc21)[N+](=O)[O-]` (stereo not drawn), for which the TGI in the assay with A498 renal, in the assay with CAKI-1 renal, with CCRF-CEM leukemia, in the assay with COLO 205 colon, in the assay with DU-145 prostate and in the assay with HOP-62 NSCLC was over 100 µM in each case. Besides, the TGI in the assay on OVCAR-8 ovarian, in the assay on RXF 393 renal and in the assay with SR leukemia was over 100 µM in each case.

On to `O=C(/C=C/c1ccccn1)c1ccccc1O`, for which the GI50 in the assay on A498 renal was 2.21 µM; in the assay on CAKI-1 renal, 1.58 µM; with CCRF-CEM leukemia, 1.71 µM; with COLO 205 colon, 1.69 µM; in the assay with DU-145 prostate, 2.31 µM; with HOP-62 NSCLC, 2.4 µM. Also, the GI50 in the assay on OVCAR-8 ovarian is 3.34 µM; in the assay on RXF 393 renal, 1.75 µM; with SR leukemia, 1.7 µM. Further, the TGI with A498 renal came to 7.14 µM; in the assay with CAKI-1 renal, 3.21 µM; with CCRF-CEM leukemia, 5.43 µM; in the assay on COLO 205 colon it was 3.3 µM; with DU-145 prostate, 5.69 µM; with HOP-62 NSCLC, 6.15 µM. The TGI with OVCAR-8 ovarian amounted to 12.2 µM; in the assay on RXF 393 renal it was 3.25 µM; in the assay on SR leukemia it was 4.99 µM.

With `COc1ccc(S(=O)(=O)N2CCN(C(=O)OCc3ccccc3)CC2C(=O)NO)cc1` (stereo not drawn), the GI50 was 24.6 µM in the assay on A498 renal; 10.1 µM with CAKI-1 renal; 6.2 µM in the assay on CCRF-CEM leukemia; over 25 µM with COLO 205 colon; 18.7 µM in the assay with DU-145 prostate; over 25 µM in the assay on HOP-62 NSCLC. Moreover, the GI50 in the assay on OVCAR-8 ovarian and with RXF 393 renal was over 25 µM each time. Moreover, the TGI in the assay with A498 renal, in the assay with CAKI-1 renal, in the assay on CCRF-CEM leukemia, with COLO 205 colon, in the assay on DU-145 prostate and with HOP-62 NSCLC was over 25 µM throughout. Besides, the TGI with OVCAR-8 ovarian and in the assay on RXF 393 renal was over 25 µM in each case.
